Activity calls are given as the source filed them. No cut-off for these calls is given here.

The assay concerns Haemonchus contortus. As to the kind of experiment: Nematocidal activity against Haemonchus contortus. It is filed as functional.

For the compound `CCOC(=O)/C=C/c1c[nH]c2cc(Br)ccc12`, the LD99 worked out at 42 µg/mL.
Take `CCOC(=O)/C=C\c1c[nH]c2cc(Br)ccc12`: the LD99 was determined as 42 µg/mL.
In the case of `COC(=O)/C=C\c1c[nH]c2cc(Br)ccc12`, the LD99 was 50 µg/mL.
`CNc1c(N(C)C=O)c(=O)n(C)c(=O)n1C`: the result was inactive.
Consider `COC(=O)/C=C/c1c[nH]c2cc(Br)ccc12`, for which the LD99 was 50 µg/mL.

Values taken from ChEMBL document CHEMBL1159332, “Equilibrating isomers: bromoindoles and a seco-xanthine encountered during a study of nematocides from the southern Australian marine sponge Hymeniacidon sp” (2002).
